Test results as given in patent US7855049B2, “Inositol pyrophosphates determine exocytotic capacity” (BioCrine AB, priority 2007, dated 2010).

Columns and labels:
Format in all cases: cell-based
[1] = system: mouse β-cells; assay: Capacitance measurement of exocytosis, standard whole-cell patch, inositol phosphate in the pipette-filling solution
Description: Cells expressing EGFP were selected for capacitance measurements. Exocytosis was monitored as changes in cell capacitance using either the perforated patch or standard whole-cell configuration of the patch-clamp technique and an EPC9 patch-clamp amplifier (Heka Elektronik, Lambrecht/Pfalz, Germany). The pipette solution for the perforated patch configuration consisted of (in mM) 76 Cs2SO4, 10 NaCl, 10 KCl, 1 MgCl2, 5 HEPES (pH 7.35 with CsOH) and 0.24 mg/ml amphotericin B. Perforation required a few minutes, and the voltage clamp was considered satisfactory when the Gseries (series conductance) was stable and >35 nS. The pipette solution used for standard whole-cell recordings contained (in mM) 125 Cs-glutamate, 10 CsCl, 10 NaCl, 1 MgCl2, 5 HEPES, 0.05 EGTA, 0.01 GTP and 3 MgATP (pH 7.15 using CsOH). InsP7 isomers were dissolved in the pipette-filling solution to the final concentrations indicated in the text and kept on ice until use. The extracellular medium was composed of (in mM) 118 NaCl, 20 tetraethylammonium-Cl, 5.6 KCl, 1.2 MgCl2, 2.6 CaCl2, 5 HEPES (pH 7.40 using NaOH) and 3 glucose. The stimulation protocol consisted of trains of four 500-ms depolarizations applied at 1 Hz and went from −70 mV to zero mV. The capacitance measurements were performed at 33° C. and the recording chamber was perfused at a rate of 1.5 ml/min.
An important concern is that IP6K's can also use InsP5 as a substrate, generating a different subset of inositol pyrophosphates (4). Therefore, it was necessary to verify that InsP7 is able to directly promote exocytosis. The mammalian InsP7 is the 5-isomer and this was used in detailed experiments (FIG. 3A-D). We also assessed other theoretical isomers of InsP7 (FIG. 3E). To measure the effects of 5-InsP7 on exocytosis, we applied trains of depolarizations in standard whole-cell experiments where the β-cell was dialyzed with a solution containing 3 μM InsP7. Following establishment of the whole-cell configuration, the cell was allowed two minutes equilibration period. A train consisting of four 500 ms depolarizations from −70 mV to 0 mV was then applied to evoke exocytosis. In a series of six experiments, the total increase in cell capacitance amounted to 231+/−12 fF (P<0.01) in the presence of 3 μM InsP7 in the pipette-filling solution and 77+/−11 fF under control conditions, respectively (FIG. 3A). […] The stimulatory action of 5-InsP7 on exocytosis was concentration dependent (FIG. 3D). […] At higher concentrations, 5-InsP7 stimulated exocytosis by 90-410%. Approximating the average data points to the Hill equation yielded a half-maximal stimulatory effect of 1.02 μM and a co-operativity factor of 1.5. […] Thus, 5-InsP7 dose-dependently enhances exocytosis within the physiological range of InsP7 concentrations (1-10 μM). […] This is because the effect of InsP6 on exocytosis can only be discerned under conditions in which endocytosis is inhibited (15). This is not the case for InsP7. […] Our data illustrate that InsP7 and InsP6 have distinct effects on exocytosis.

[2] = system: whole-cell Ca2+ current in mouse β-cells; assay: Whole-cell Ca2+ current (integrated Ca2+ current) during depolarization train; conditions: 3 μM in the pipette-filling solution
Description: FIG. 3. InsP7 dose-dependently promotes Ca2+-dependent exocytosis. Individual mouse β-cells were subjected to a train of four 500-ms depolarizations using the standard whole-cell patch configuration. (A) Exocytosis was observed under control conditions and in the presence of 3 μM 5-InsP7 in the pipette-filling solution. 5-InsP7 was allowed to diffuse into the cell for 2 min before initiation of the experiment. (B) Histogram summarizing the average increases in cell capacitance plotted against the individual depolarizations as well as the total increases in cell capacitance at the end of the train in the absence or presence of 3 μM 5-InsP7 in the pipette-filling solution. (C) Histogram showing integrated Ca2+ current (QCa) plotted against the individual depolarizations in the absence or presence of 3 μM InsP7 in the pipette-filling solution. (D) Concentration dependence of stimulatory action of 5-InsP7 on exocytosis evoked by a single membrane depolarization from −70 mV to zero. The curve represents a least-squares fit of the mean data points to the Hill equation. […]
Cells expressing EGFP were selected for capacitance measurements. Exocytosis was monitored as changes in cell capacitance using either the perforated patch or standard whole-cell configuration of the patch-clamp technique and an EPC9 patch-clamp amplifier (Heka Elektronik, Lambrecht/Pfalz, Germany). […]

[3] = system: mouse β-cells; assay: Capacitance measurement of exocytosis, standard whole-cell patch, inositol phosphate in the pipette-filling solution; design: dose or concentration left out as unconfirmed; conditions: at InsP7; single depolarization from −70 mV to zero
[4] = in the presence of 5-InsP7 (3 μM)

EC50 ([1]; Hill equation fit of average data points, read-out: half-maximal stimulatory effect on exocytosis)	SMILES	net effect on exocytosis/endocytosis ([1]; same conditions as for InsP7, 10 μM InsP6 in the pipette-filling solution)	selective promotion of secretion from the RRP ([1]; when endocytosis is inhibited (data not shown))	concentration giving maximal stimulation of exocytosis [1]	total increase in cell capacitance ([1]; 3 μM InsP7 in the pipette-filling solution, train of four 500 ms depolarizations, six experiments)	maximal stimulation of exocytosis ([1]; at InsP7 ≧10 μM)	stimulation of exocytosis ([1]; at higher concentrations (above 0.1), single depolarization)	capacitance increase evoked by the first depolarization [1, 4]	exocytosis in response to the subsequent 3 depolarizations [1, 4]	exocytotic response in cells with IP6K1 silenced ([1]; whole cell mode, IP6K1 siRNA-treated primary β-cells)	change in the whole-cell Ca2+ current [2]	stimulation of exocytosis at low concentration [3]
–	O=P(O)(O)O[C@H]1[C@H](OP(=O)(O)O)[C@@H](OP(=O)(O)O)[C@H](OP(=O)(O)O)[C@@H](OP(=O)(O)O)[C@H]1OP(=O)(O)O [InsP6]	promote endocytosis not exocytosis	does not selectively promote secretion from the RRP	–	–	–	–	–	–	–	–	–
1020 nM	O=P(O)(O)OC1[C@@H](OP(=O)(O)O)[C@H](OP(=O)(O)O)C(OP(=O)(O)OP(=O)(O)O)[C@H](OP(=O)(O)O)[C@H]1OP(=O)(O)O (stereo partly drawn) [5-InsP7, 5-Diphosphoinositol pentakisphosphate]	–	–	≥ 10 µM	231+/−12 fF	> 380%	90-410%	strongly stimulated	only little effect	restore normal exocytotic response	not associated with a change	No stimulation
